Read-outs that look alike come from different tables or passages of the source.
Experiments:
Experiment in all cases: Ambit kinase profiling, competition binding
[1] = target: T1, CAMKIδ (Homo sapiens, UniProt Q8IU85); conditions: for competition: CAMKIδ, 10 µM
T1 construct: purchased Ambit Biosciences (KINOMEscan)
Experimental: (§1) Also included in the kinase profile are four isoforms of PKC (δ, ε, η, θ) and eight isoforms of CAMKs (CAMKIα, δ, γ; CAMKIIα, β, δ, γ; CAMK4).
(§2) The global kinase profiling experiment was performed by Ambit Biosciences.

[2] = target: T2, CDK3 (Homo sapiens, UniProt Q00526); conditions: for % Competition: 10 µM
T2 construct: purchased Ambit Biosciences (KINOMEscan)
Experimental: as §1, §2

[3] = target: T3, CDK5 (Homo sapiens, UniProt Q00535)
T3 construct: purchased Ambit Biosciences (KINOMEscan)
Experimental: as §1, §2

[4] = target: T4, CSNK1E (Homo sapiens, UniProt P49674)
T4 construct: purchased Ambit Biosciences (KINOMEscan)
Experimental: as §1, §2

[5] = target: T5, DDR1 (Homo sapiens, UniProt Q08345)
T5 construct: purchased Ambit Biosciences (KINOMEscan)
Experimental: as §1, §2

[6] = target: T6, DYRK1B (Homo sapiens, UniProt Q9Y463)
T6 construct: purchased Ambit Biosciences (KINOMEscan)
Experimental: as §1, §2

[7] = target: T7, EPHA8 (Homo sapiens, UniProt P29322)
T7 construct: purchased Ambit Biosciences (KINOMEscan)
T7 sequence (P29322 28-1005): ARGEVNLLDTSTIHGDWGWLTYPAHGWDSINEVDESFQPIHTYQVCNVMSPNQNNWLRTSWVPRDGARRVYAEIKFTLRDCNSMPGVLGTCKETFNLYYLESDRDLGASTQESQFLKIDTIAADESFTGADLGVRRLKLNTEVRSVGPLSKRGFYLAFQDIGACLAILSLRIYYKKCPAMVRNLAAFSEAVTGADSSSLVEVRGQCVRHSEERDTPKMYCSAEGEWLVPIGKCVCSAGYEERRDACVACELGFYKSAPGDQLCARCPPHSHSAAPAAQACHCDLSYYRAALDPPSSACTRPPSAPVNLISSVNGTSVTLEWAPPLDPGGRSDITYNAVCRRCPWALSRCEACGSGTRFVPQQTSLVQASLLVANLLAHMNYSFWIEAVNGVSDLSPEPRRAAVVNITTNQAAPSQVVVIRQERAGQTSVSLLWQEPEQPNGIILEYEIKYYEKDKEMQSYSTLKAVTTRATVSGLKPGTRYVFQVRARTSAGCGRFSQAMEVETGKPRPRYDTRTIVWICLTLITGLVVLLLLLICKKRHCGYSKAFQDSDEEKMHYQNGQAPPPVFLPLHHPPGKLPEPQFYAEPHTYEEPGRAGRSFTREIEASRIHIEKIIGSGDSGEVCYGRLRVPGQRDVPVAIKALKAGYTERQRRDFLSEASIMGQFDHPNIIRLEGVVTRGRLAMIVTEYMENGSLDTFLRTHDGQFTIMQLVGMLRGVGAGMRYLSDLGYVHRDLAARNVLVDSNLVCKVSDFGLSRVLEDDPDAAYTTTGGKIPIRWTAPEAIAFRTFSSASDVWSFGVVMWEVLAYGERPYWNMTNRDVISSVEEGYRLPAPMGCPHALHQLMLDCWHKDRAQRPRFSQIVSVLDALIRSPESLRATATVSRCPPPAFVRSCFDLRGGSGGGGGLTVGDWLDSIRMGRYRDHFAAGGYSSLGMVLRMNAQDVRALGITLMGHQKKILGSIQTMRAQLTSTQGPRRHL
Experimental: as §1, §2

[8] = target: T8, LCK (Homo sapiens, UniProt P06239)
T8 construct: purchased Ambit Biosciences (KINOMEscan)
Experimental: as §1, §2

[9] = target: T9, MST4 (Homo sapiens, UniProt Q9P289)
T9 construct: purchased Ambit Biosciences (KINOMEscan)
Experimental: as §1, §2

[10] = target: T10, RPS6KA6(Kin.Dom.2-C-terminal) (Homo sapiens, UniProt Q9UK32); conditions: for % Competition: 10 µM
T10 construct: RPS6KA6(Kin.Dom.2-C-terminal); purchased Ambit Biosciences (KINOMEscan)
T10 sequence (Q9UK32 401-745 limits assumed): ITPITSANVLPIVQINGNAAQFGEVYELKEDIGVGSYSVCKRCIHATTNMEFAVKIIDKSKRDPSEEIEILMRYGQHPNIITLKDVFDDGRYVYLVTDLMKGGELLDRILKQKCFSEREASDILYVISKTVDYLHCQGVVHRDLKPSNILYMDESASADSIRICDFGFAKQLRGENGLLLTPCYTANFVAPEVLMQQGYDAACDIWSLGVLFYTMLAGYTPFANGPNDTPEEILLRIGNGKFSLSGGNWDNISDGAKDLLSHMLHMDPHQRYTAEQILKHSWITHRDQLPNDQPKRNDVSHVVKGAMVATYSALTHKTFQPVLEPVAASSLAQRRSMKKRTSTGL
Experimental: as §1, §2

T1 sequence (Q8IU85 whole entry): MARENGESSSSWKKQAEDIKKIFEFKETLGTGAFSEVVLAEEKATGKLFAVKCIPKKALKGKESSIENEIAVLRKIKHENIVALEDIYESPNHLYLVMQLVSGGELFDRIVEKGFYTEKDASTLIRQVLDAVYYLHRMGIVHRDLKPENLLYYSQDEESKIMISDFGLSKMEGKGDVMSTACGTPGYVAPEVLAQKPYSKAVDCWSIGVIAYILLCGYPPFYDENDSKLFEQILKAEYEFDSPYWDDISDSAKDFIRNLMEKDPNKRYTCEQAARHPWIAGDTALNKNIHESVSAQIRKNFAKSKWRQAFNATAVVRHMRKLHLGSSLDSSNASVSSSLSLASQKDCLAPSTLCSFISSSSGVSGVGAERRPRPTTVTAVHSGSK
T2 sequence (Q00526 whole entry): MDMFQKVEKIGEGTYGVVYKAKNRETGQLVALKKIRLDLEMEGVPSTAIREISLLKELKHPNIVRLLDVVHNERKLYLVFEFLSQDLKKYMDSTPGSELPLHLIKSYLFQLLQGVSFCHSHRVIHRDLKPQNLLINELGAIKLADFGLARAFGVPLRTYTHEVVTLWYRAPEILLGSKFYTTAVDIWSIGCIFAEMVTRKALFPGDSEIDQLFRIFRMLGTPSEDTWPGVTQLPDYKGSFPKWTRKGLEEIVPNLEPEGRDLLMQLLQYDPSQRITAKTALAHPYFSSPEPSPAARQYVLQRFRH
T5 sequence (Q08345 19-913): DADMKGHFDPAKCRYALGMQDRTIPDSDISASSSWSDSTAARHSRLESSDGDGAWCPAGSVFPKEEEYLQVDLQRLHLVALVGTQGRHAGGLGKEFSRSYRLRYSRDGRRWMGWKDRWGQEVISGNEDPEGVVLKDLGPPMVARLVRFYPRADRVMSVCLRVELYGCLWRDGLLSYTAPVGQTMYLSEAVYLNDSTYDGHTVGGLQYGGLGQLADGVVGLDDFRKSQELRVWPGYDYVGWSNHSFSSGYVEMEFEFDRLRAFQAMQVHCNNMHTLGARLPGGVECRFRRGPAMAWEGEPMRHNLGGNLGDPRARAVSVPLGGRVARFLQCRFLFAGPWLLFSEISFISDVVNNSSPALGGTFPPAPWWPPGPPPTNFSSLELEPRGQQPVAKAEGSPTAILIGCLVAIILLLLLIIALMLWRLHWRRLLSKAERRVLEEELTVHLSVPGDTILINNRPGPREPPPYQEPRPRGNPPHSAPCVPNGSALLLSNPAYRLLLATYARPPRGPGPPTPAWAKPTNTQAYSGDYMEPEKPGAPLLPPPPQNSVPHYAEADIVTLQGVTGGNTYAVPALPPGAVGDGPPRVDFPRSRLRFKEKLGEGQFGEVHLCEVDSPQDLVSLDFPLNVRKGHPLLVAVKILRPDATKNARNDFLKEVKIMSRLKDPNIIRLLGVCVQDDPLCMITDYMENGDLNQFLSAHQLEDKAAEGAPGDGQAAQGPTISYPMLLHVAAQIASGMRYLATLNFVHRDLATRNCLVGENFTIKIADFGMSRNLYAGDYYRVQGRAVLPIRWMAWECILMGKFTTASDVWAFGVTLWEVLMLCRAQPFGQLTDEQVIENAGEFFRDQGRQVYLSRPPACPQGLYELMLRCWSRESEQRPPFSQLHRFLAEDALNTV
T3 sequence (Q00535 whole entry): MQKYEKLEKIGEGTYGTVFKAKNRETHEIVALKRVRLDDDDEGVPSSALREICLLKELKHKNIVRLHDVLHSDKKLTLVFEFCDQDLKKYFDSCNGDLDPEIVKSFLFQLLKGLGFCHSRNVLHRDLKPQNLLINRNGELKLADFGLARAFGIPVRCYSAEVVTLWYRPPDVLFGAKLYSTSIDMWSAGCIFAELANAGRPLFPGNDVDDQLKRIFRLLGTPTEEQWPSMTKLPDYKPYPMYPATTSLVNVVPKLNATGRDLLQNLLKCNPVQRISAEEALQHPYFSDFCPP
T6 sequence (Q9Y463 whole entry): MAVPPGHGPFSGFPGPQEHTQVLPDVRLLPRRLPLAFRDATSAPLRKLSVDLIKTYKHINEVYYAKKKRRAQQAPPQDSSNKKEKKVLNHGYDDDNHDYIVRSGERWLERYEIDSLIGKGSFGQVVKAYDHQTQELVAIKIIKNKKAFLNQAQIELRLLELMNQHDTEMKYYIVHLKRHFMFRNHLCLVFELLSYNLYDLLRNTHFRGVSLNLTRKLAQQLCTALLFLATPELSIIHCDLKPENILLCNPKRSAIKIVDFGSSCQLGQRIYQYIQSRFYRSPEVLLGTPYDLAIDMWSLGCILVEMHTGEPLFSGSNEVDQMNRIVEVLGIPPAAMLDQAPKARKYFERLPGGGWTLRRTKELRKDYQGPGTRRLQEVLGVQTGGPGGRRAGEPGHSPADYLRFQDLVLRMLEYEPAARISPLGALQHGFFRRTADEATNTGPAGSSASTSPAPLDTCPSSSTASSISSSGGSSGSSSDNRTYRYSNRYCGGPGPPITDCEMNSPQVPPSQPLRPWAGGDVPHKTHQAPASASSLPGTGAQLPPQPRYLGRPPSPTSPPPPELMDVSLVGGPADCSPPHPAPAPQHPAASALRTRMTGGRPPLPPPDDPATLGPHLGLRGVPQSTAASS
T8 sequence (P06239 whole entry): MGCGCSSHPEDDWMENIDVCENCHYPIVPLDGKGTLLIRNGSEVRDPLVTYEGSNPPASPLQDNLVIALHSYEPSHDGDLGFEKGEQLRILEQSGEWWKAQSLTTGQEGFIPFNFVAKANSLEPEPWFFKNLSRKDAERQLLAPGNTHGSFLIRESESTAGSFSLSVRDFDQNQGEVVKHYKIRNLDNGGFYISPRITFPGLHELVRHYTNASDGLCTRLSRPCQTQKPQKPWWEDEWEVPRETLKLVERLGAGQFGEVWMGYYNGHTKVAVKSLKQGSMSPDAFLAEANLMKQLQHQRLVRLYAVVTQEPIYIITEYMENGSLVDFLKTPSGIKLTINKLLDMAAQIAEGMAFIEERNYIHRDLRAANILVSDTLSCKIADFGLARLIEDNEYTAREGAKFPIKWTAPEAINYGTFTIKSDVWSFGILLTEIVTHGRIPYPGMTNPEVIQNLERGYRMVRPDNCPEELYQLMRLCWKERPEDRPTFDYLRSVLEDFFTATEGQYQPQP
T9 sequence (Q9P289 whole entry): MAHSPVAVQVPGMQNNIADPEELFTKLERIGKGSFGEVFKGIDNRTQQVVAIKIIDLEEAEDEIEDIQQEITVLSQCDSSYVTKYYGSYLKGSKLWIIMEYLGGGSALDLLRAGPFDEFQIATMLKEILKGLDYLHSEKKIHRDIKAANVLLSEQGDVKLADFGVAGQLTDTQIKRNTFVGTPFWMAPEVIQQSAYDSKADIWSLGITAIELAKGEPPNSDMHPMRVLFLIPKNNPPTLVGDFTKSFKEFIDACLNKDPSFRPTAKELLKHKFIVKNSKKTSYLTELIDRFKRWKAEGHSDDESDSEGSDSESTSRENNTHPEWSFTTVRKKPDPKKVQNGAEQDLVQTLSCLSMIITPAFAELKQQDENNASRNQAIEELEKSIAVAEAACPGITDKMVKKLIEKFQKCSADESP
T4 sequence (P49674 whole entry): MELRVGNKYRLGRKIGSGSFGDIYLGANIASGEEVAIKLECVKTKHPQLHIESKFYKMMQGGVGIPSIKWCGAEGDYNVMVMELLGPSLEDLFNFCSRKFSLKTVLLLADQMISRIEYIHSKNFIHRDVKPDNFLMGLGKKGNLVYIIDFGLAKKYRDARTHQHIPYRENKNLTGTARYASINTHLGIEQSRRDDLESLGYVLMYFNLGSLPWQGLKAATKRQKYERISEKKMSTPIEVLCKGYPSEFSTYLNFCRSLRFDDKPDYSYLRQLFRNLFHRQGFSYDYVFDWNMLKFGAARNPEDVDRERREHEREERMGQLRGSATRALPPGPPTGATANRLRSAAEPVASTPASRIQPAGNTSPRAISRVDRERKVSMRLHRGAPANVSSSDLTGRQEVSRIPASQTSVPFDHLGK

## Fc1ccc(-c2c(-c3ccncc3)[nH]c3nccnc23)cc1 [Compound 122]
[1]
  competition: < 50%
[2]
  % Competition: 92%
[3]; CDK5, 10 µM, read-out: % Competition
  inhibition at 10 µM: 92%
[4]; CSNK1E, 10 µM, read-out: % Competition
  inhibition at 10 µM: 100%
[5]; DDR1, 10 µM, read-out: % Competition
  inhibition at 10 µM: 100%
[6]; DYRK1B, 10 µM, read-out: % Competition
  inhibition at 10 µM: 79%
[7]; EPHA8, 10 µM, read-out: % Competition
  inhibition at 10 µM: 71%
[8]; LCK, 10 µM, read-out: % Competition
  inhibition at 10 µM: 71%
[9]; MST4, 10 µM, read-out: % Competition
  inhibition at 10 µM: 97%
[10]
  % Competition: 98%

## CC(O)CNc1cc(-c2[nH]c3cccnc3c2-c2ccc(F)cc2)ccn1 (stereo not drawn) [Compound 140]
[1]
  competition: < 50%
[2]
  % Competition: <50%
[3]; read-out: % Competition
  inhibition at 10 µM: < 50%
[4]; read-out: % Competition, CSNK1E, 10 µM
  inhibition at 10 µM: 99 to 100%
[5]; read-out: % Competition
  inhibition at 10 µM: 98%
[6]; read-out: % Competition
  inhibition at 10 µM: < 50%
[7]; read-out: % Competition
  inhibition at 10 µM: < 50%
[8]; read-out: % Competition
  inhibition at 10 µM: < 50%
[9]; read-out: % Competition
  inhibition at 10 µM: < 50%
[10]
  % Competition: 96%

## Fc1ccc(-c2c(-c3ccncc3)[nH]c3nccnc23)cc1 [RO1155697-000-005]
[1]; CAMK1D, compound concentration 10 uM, read-out: Percent Competition
  inhibition at 10 µM: < 50%
[2]; compound concentration 10 uM
  Percent Competition: 92%
[3]; CDK5, compound concentration 10 uM, read-out: Percent Competition
  inhibition at 10 µM: 92%
[4]; CSNK1E, compound concentration 10 uM, read-out: Percent Competition
  inhibition at 10 µM: 100%
[5]; DDR1, compound concentration 10 uM, read-out: Percent Competition
  inhibition at 10 µM: 100%
[6]; DYRK1B, compound concentration 10 uM, read-out: Percent Competition
  inhibition at 10 µM: 79%
[7]; EPHA8, compound concentration 10 uM, read-out: Percent Competition
  inhibition at 10 µM: 71%
[8]; LCK, compound concentration 10 uM, read-out: Percent Competition
  inhibition at 10 µM: 71%
[9]; MST4, compound concentration 10 uM, read-out: Percent Competition
  inhibition at 10 µM: 97%
[10]; compound concentration 10 uM
  Percent Competition: 98%
